Laboratory results reported in patent US12564631B2, “Phytosphingosine derivatives as adjuvants in immune stimulation” (Helmholtz-Zentrum für Infektionsforschung GmbH, priority 2020, dated 2026).
Entries after “also recorded” stand apart in the source; their conditions may differ.

Experiments:
Ova-specific IgG = Ova-specific IgG titer (ELISA) in sera of mice immunized with Ovalbumin plus adjuvant; format: in vivo; details: Ovalbumin 30 μg + adjuvant 15 μg, days 0, 14, 28, sera 14 days after last immunization
Protocol: FIG. 5: Immunization protocol—Administration (intramuscular route) of Ovalbumin with adjuvants. Ovalbumin (30 μg) was co-administered (intramuscular) without or with different adjuvants, such as IPB 2033-2044, c-di-AMP or aßGalCerMPEG (15 μg), on days 0, 14 and 28.
(§1) FIG. 7: Systemic humoral immune responses induced in mice. Shown is the IgG titer as a readout of systemic humoral immune responses induced in mice after three immunizations with Ovalbumin co-administered with different adjuvants via intramuscular route. Ova-specific IgG titers were measured via ELISA in sera 14 days after the last immunization.
FIG. 9: Immunization protocol—Administration (intranasal route) of Ovalbumin with adjuvants. Immunization protocol: Mucosal administration (intranasal (i.n.) route) of Ovalbumin (30 μg) co-administered without or with different adjuvants, such as IPB 2033-2044, c-di-AMP or aßGalCerMPEG (15 μg), on days 0, 14 and 28.
as §1, with “11:” for “7:”, “intranasal” for “intramuscular”, “titers” for “titers were measured via ELISA”
Groups of mice (3-5 animals) were immunized either intranasal (i.n.) or intramuscular (i.m.) on days 0, 14 and 281 with PBS, or with Ovalbumin (30 μg); the latter were administered alone or with different adjuvants—c-di-AMP, aßGalCerMPEG or IPB 2033 to 2044—made up to a maximal volume of 20 μl (i.n.) or 50 μl (i.m.) in PBS.
Blood samples were collected on days 1, 14, 28 and 42 via retro-bulbar bleeding. Spleens of vaccinated mice were aseptically removed. For the subsequent methods, cell suspensions of spleens (n=5) of each immunized groups were prepared and erythrocytes were lysed. These splenocyte pools of each group were cultured in the presence of different concentrations of Ovalbumin; controls received 5 μg/mL concanavalin A. The incorporation of [^3H] thymidine into the DNA of proliferating cells was determined using a scintillation counter (Wallac 1450, Micro-Trilux).
The Ova-specific antibodies were determined in serum samples by ELISA. Endpoint titers were expressed as reciprocal values of the last dilution, which gave an optical density at 405 nm of two times above the values of the negative controls. For calculation purposes, negative samples were assigned an arbitrary titer of the lowest dilution measured.
As described in the protocols above, groups of mice (3-5 animals) were immunized either intranasal (i.n.) or intramuscular (i.m.) on days 0, 14 and 281 with PBS, or with Ovalbumin (30 μg); the latter were administered alone or with different adjuvants—c-di-AMP, aßGalCerMPEG or IPB 2033 to 2044—is shown in FIG. 5-11, intramuscular.

CD4+ T cells = assay: CFSE proliferation assay of CD4+ T cells after interaction with Ova/adjuvant-matured bone marrow derived DCs (APC); format: cell-based, mice; details: for stimulating effect of CD4+ T cells versus controls with only antigen Ova: CFSE loss up to 7 days, DCs activated with Ova + 10 μg compound, FIG. 4A/4B
From the text: FIG. 3B: Cell proliferation tracked by CFSE dilution of CD4+ T cells after interaction with matured Antigen Presenting Cells (APC). With every cell division, the CFSE signal strength is approximately halved. The shown cell numbers indicate the ratio of proliferated live CD4+ T cells.
(§2) FIG. 4: Effect after treatment with IPB 0964-1917—Cell proliferation tracked by CFSE loss of T cells after interaction with matured Antigen Presenting Cells (APC). With every cell division, the CFSE signal strength is reduced. The shown cell numbers indicate the ratio of proliferating T and B cells (7 steps are shown). (A) Numbers of CD4+ T cells are shown at different proliferation steps up to 7 days measuring the loss of CFSE. Naïve cells were treated with one of IPB1901-1912 together with DCs activated with Ova prior to the CFSE assay. (B) Numbers of CD4+ T cells are shown at different proliferation steps up to 7 days measuring the loss of CFSE. Naïve cells were treated with one of IPB2033-2044 together with DCs activated with Ova prior to the CFSE assay. (C) Numbers of CD8+ T cells are shown at different proliferation steps up to 7 days measuring the loss of CFSE. Naïve cells were treated with one of IPB1901-1912 together with DCs activated with Ova prior to the CFSE assay. (D) Numbers of CD8+ T cells are shown at different proliferation steps up to 7 days measuring the loss of CFSE. Naïve cells were treated with one of IPB2033-2044 together with DCs activated with Ova prior to the CFSE assay.
(§3) In order to assess the properties of the inventive compounds in antigen-specific T and B cell stimulation, the compounds were administered to cultured bone marrow cells in a CFSE assay.
(§4) Briefly, femurs and Tibiae of female 4-12 weeks old C57Bl6 (or BALB/c for TCR HA) were removed and purified from the surrounding muscle tissue (Kleenex tissues). Intact Bones were left in 70% ethanol for 2-5 min for disinfection. Both ends were cut with scissors and the bone marrow were flushed with PBS using a syringe with a 0.45 mm diameter needle, clusters were disintegrated by vigorous pipetting.
(§5) In order to obtain activated antigen presenting dendritic cells (DCs), bone marrow cells were cultured with GM-CSF. On Day 0, cells were seeded in a concentration of 2×10^6 cells per 100 mm dish (bacteriological petri dishes) in 10 ml RPMI-10 (100 U Pen/100 μg Strept/2 mM Glutamin/50 μm ß-Mercaptoethanol/10% FCS heat-inactivated and filtered 0.22 μm Filter) containing 200 Units GM-CSF. On Day 3 another 10 ml RPMI-10 containing 200 U GM-CSF were added to the plates. On Day 6 half of the culture supernatants (10 ml) were collected, centrifuged and the cell pellet resuspended in 10 ml fresh RPMI-10/200 U GM-CSF and given back into the original plates.
(§6) Subsequently, the DCs were incubated with Ovalbumin (as antigen) alone or co-administered with known adjuvants, such as α-GalCerMPEG, aßGalCerMPEG or TLR2/6 ligand (BPPcysMPEG), or the novel phytosphingosine derivatives of the present invention. The activation of DCs was controlled by FACS analysis of different CD markers, such as CD40, CD54, CD80, CD86, CD83, MHCI and MHCII.
(§7) The effect of the compounds of the present invention was then ascertained via co-incubation of naïve T or B cells, obtained from mice (OTI or OTII mice) with previous exposure to the Ova antigen, with DCs that had been treated with the compounds of the invention.
(§8) Naïve T cells were derived from LN/spleen from OTI or OTII mice. The MagniSort™ Mouse CD4 naïve or CD8 naïve T cell Enrichment Kit is designed for the magnetic separation of CD4 or CD8 naïve T cells by negative selection from mouse spleens or lymph nodes utilizing a biotinylated antibody cocktail and streptavidin-coated magnetic beads. Undesired cells are bound by antibody (Anti-Mouse CD8 or CD4/CD11b CD19/CD24/CD44/CD45R(B220)/CD49b(Integrin α 2)/Ly-6G (Gr-1)/γδ TCR/TER-119) and then magnetic beads that, when placed in a magnetic field, leave CD4 or CD8 naïve T cells untouched and free in solution. […]

CD8+ T cells = assay: CFSE proliferation assay of CD8+ T cells after interaction with Ova/adjuvant-matured bone marrow derived DCs (APC); format: cell-based, mice
From the text: FIG. 3C: Cell proliferation tracked by CFSE dilution of CD8+ T cells after interaction with matured Antigen Presenting Cells (APC). With every cell division, the CFSE signal strength is approximately halved. The shown cell numbers indicate the ratio of proliferated live CD8+ T cells
as §2, §3, §4, §5, §6, §7, §8

| SMILES | stimulation of antigen specific IgG production compared to control aßGalCerMPEG+ova (Ova-specific IgG; intramuscular (i.m.), FIG. 7) | stimulation of antigen specific IgG production compared to control aßGalCerMPEG+ova (Ova-specific IgG; intranasal (i.n.), FIG. 11) | stimulating effect of CD4+ T cells versus controls with only antigen Ova (CD4+ T cells) | capacity to induce antigen specific CD4+ T cell proliferation (CD4+ T cells; DCs restimulated with Ovalbumin + 10 μg compound for 24 h, interaction with APC for 5 days, FIG. 3B) | effect to induce antigen specific CD8+ T cell proliferation (CD8+ T cells; DCs restimulated with Ovalbumin + 10 μg compound for 24 h, interaction with APC for 5 days, FIG. 3C) | stimulating effect of CD8+ T cells versus controls with only antigen Ova (CD8+ T cells; CFSE loss up to 7 days, DCs activated with Ova + 10 μg compound, FIG. 4C/4D) |
| --- | --- | --- | --- | --- | --- | --- |
| CCCCCCCCCCCCCCCCCCCCCCCCCC(=O)N(CC(=O)NCCCCCCN)[C@@H](CO[C@H]1OC(CO)[C@H](O)C(O)C1O)[C@H](O)[C@H](O)CCCCCCCCCCCCCC (stereo partly drawn) [IPB 2035] | improved stimulation | at least equivalent | – | – | – | – |
| CCCCCCCCCCCCCCCCCCCCCCCCCC(=O)N(CC(=O)NCC(OC)OC)[C@@H](CO[C@H]1OC(CO)[C@H](O)C(O)C1O)[C@H](O)[C@H](O)CCCCCCCCCCCCCC (stereo partly drawn) [IPB 2038] | at least equivalent | improved stimulation | stimulating effect of CD4+ T cells beyond controls | – | – | – |
| CCCCCCCCCCCCCCCCCCCCCCCCCC(=O)N(CC(=O)NCCC(=O)OC(C)(C)C)[C@@H](CO[C@H]1OC(CO)[C@H](O)C(O)C1O)[C@H](O)[C@H](O)CCCCCCCCCCCCCC (stereo partly drawn) [IPB 2043] | improved stimulation | improved stimulation | – | – | – | – |
| CCCCCCCCCCCCCCCCCCCCCCCCCC(=O)N(CC(=O)NCCCc1ccccc1)[C@@H](CO[C@H]1OC(CO)[C@H](O)C(O)C1O)[C@H](O)[C@H](O)CCCCCCCCCCCCCC (stereo partly drawn) [IPB 2037] | improved stimulation | at least equivalent | – | – | – | – |
| CCCCCCCCCCCCCCCCCCCCCCCCCC(=O)N(CC(=O)NCCOCCOCCOCCOCCOC)[C@@H](CO[C@H]1OC(CO)[C@H](O)[C@H](O)C1O)[C@H](O)[C@H](O)CCCCCCCCCCCCCC (stereo partly drawn) [IPB 2044] | at least equivalent | at least equivalent | – | – | – | – |
| CCCCCCCCCCCCCCCCCCCCCCCC(=O)N(CC(=O)NCCCCCCCCCCCCCCCCCC)[C@@H](CO[C@H]1OC(CO)[C@H](O)C(O)C1O)[C@H](O)[C@H](O)CCCCCCCCCCCCCC (stereo partly drawn) [IPB 2040] | improved stimulation | improved stimulation | – | – | – | – |
| CCCCCCCCCCCCCCCCCCCCCCCCCC(=O)N(CC(=O)NCCN1C(=O)c2cccc3c(N(C)C)ccc(c23)C1=O)[C@@H](CO[C@H]1OC(CO)[C@H](O)C(O)C1O)[C@H](O)[C@H](O)CCCCCCCCCCCCCC (stereo partly drawn) [IPB 2041] | at least equivalent | improved stimulation | – | – | – | – |
| CCCCCCCCCCCCCCCCCCCCCCCCCC(=O)N(CC(=O)NCCCCCCCCCCCCCCCCCC)[C@@H](CO[C@H]1OC(CO)[C@H](O)C(O)C1O)[C@H](O)[C@H](O)CCCCCCCCCCCCCC (stereo partly drawn) [IPB 2033] | improved stimulation | improved stimulation | – | – | – | – |
| CCCCCCCCCCCCCCCCCCCCCCCCCC(=O)N(CC(=O)NCCOCCOCCOCCOC)[C@@H](CO[C@H]1OC(CO)[C@H](O)[C@H](O)C1O)[C@H](O)[C@H](O)CCCCCCCCCCCCCC (stereo partly drawn) [IPB 2034] | improved stimulation | at least equivalent | – | – | – | – |
| CCCCCCCCCCCCCCCCCCCCCCCC(=O)N(CC(=O)NCCC(=O)O)[C@@H](CO[C@H]1OC(CO)[C@H](O)C(O)C1O)[C@H](O)[C@H](O)CCCCCCCCCCCCCC (stereo partly drawn) [IPB 0964] | – | – | – | high capacity | strong effect; also recorded: beneficial effect | – |
| CCCCCCCCCCCCCCCCCCCCCCCCCC(=O)N(CC(=O)NC1CCCCC1)[C@@H](CO[C@H]1OC(CO)[C@H](O)C(O)C1O)[C@H](O)[C@H](O)CCCCCCCCCCCCCC (stereo partly drawn) [IPB 2039] | improved stimulation | improved stimulation | stimulating effect of CD4+ T cells beyond controls | – | – | stimulating effect of CD8+ T cells beyond controls |
| CCCCCCCCCCCCCCCCCCCCCCCCCC(=O)N(CC(=O)NCc1ccccc1)[C@@H](CO[C@H]1OC(CO)[C@H](O)C(O)C1O)[C@H](O)[C@H](O)CCCCCCCCCCCCCC (stereo partly drawn) [IPB 2042] | improved stimulation | improved stimulation | – | – | – | – |
